{"source": "paper PMC2993181", "about": "(PLoS ONE, 2010)", "data": [{"tested_on": "JEKO-1", "assay": "cells", "set-up": "species or system cell viability; MTT cell viability assay, absorbance 570/650 nm; IC50 by linear interpolation of concentration-response curve", "conditions": "Homo sapiens, JeKo-1, 48 h; read-out: IC 50 values", "experimental": "Supplementary file pone.0015479.s006.doc: Table S2 A list of compounds tested in this study. JEKO-1 cells were treated with each of the listed compounds at concentrations ranging from 1.25 µM to […]. Cell viability was determined by the MTT assay and used to obtain concentration-response curve. IC50 was extracted by linear interpolation. Click here for additional data file. HeLa and 293T cells from ATCC were maintained according to the standard procedures. JEKO-1 cells were kept in RPMI, 10% FCS as previously described. NOXA and control stable knock-down JEKO-1 cells were described previously. PBMC from normal volunteers were obtained from the Department of Transfusion Medicine, NIH and PBMC from CLL patients were obtained under NIH protocol 97-C-0178 with informed consent. Transfection was done with lipofectamine 2000 (Invitrogen) for 293T accordingly to manufacture's instruction. Pulse chase and denaturing immunoprecipitation were carried out as described previously, [48]. Subcellular fractionation experiments were carried out as previously described. Briefly, HeLa cells were harvested and washed with phosphate-buffered saline. Cells were then treated on ice with the buffer PB (25 mM Hepes, pH 7.2, 115 mM potassium acetate, 5 mM sodium acetate, 2.5 mM magnesium acetate, 0.5 mM EGTA, and a protease inhibitor cocktail) that also contain 0.028% digitonin. Cells were centrifuged at 20,000×g for 10 min. The cytosolic supernatant fraction was removed and the nucleus and membrane pellet fraction was washed twice with the PB buffer. The pellet fraction was finally resuspended in the PB buffer. The fluorescence intensity in these fractions was measured by the Victor 3 plate reader using the Ex482 and Em523 filter set. […] After 4 h incubation, the sample absorbance at 570 nm and […] were measured using a Victor 3 plate reader (Perkin Elmer, Waltham, MA) and ratio of drug-treated samples vs. the untreated control was used to determine cell viability. […] Fluorescence labeled secondary antibodies (Invitrogen, Carlsbad, CA) were used for detection. […]", "units": {"IC50": "µM"}, "values": [{"molecule": "O=C(CCCC[C@@H]1SC[C@@H]2NC(=O)N[C@@H]21)N/N=C/C=C/c1ccc([N+](=O)[O-])o1", "note": "[CBU-032]", "IC50": 25}, {"molecule": "CN(C)c1ccc(/C=C/C=N/NC(=O)CN2C(=O)N(c3ccc(Cl)cc3)C(N(O)C(=O)Nc3ccc(Cl)cc3)C2(C)C)cc1", "note": "(stereo not drawn) [CBU-059]", "IC50": "> 40"}, {"molecule": "CC1(C)C(N(O)C(=O)Nc2ccc(Cl)cc2)N(c2ccc(Cl)cc2)C(=O)N1CC(=O)N/N=C/C=C/c1ccc([N+](=O)[O-])o1", "note": "(stereo not drawn) [EerI, Eeyarestatin I]", "IC50": 3.5}]}]}
